Patent US10537521B2 (priority 2016, dated 2020)
Values joined by “and” are separate entries in the source; they are usually repeats but may differ in a detail not shown here. Equal entries are not always repeated. Structures can show the parent of a compound that is named as a salt. Where two headings read alike, the source gives them in different places.

How the values were obtained:
[1] = Example 4: multiple dose steady-state dose proportionality study, tramadol injection 50/100 mg IV and Ultram tablet 50/100 mg oral q6h; assay type: in vivo, human; conditions: for Cmax, tramadol, Mean ± SD / Cmin, tramadol, Mean ± SD / Tmax, tramadol, Mean ± SD: steady-state, healthy volunteers
Procedure: The study was an open-label, single-period, randomized, parallel treatment design. Subjects received study drug every 6 hours beginning on the morning of Day 1 and ending on the morning of Day 3. The first dose on Day 1 and the last dose on Day 3 were administered after a minimum 10 hour fast.

[2] = cited from earlier work; for CL/F (total clearance): humans n=10 male
[3] = tramadol single […] [100 mg] p.o., humans N=12 male; cited from earlier work
[4] = tested on: patients undergoing abdominal surgery; conditions: cited from earlier work
rats and dogs = conditions: repeat-dose toxicity; cited from earlier work
[5] = standard in vitro and in vivo studies; cited from earlier work
mice and rats = conditions: cited from earlier work
[6] = cited from earlier work
[7] = loading doses up to 150 mg IV, postoperative; cited from earlier work
[8] = tested on: experienced opioid abusers; conditions: cited from earlier work
[9] = after oral administration; cited from earlier work
[10] = Example 1: multiple-dose randomized 3-way crossover PK study of two IV tramadol regimens vs 100 mg oral q6h; conditions: for theoretical accumulation factor: 1/[1-exp(−ln 2*tau/T1/2)], T1/2 approximately […]
Procedure: A fitted curve was obtained because the second oral peak was not measured in the study. For the modeling portion of the analysis, a validated Phoenix® WinNonlin® program version 6.4 (Certara) was used for PK analysis, simulation, graphics, tables and statistical calculations. […] For purposes of nonlinear regression, the data were weighted as 1/observed. Predicted concentration-time data were calculated based on the individual fitted PK parameters.

[11] = Tramadol dosed as 50 mg IV every 6 hours
[12] = Tramadol dosed as 100 mg IV every 6 hours
[13] = Tramadol dosed as Oral (Ultram tablet) every 6 hours

SMILES: COc1cccc([C@]2(O)CCCC[C@H]2CN(C)C)c1 (racemic) [Tramadol, (±)cis-2-[(dimethylamino)methyl]-1-(3-methoxyphenyl) cyclohexanol hydrochloride]
- Cmax, tramadol, Mean ± SD [1, 11]: 541 ± 126 ng/mL
- Cmin, tramadol, Mean ± SD [1, 11]: 203 ± 50 ng/mL
- Tmax, tramadol, Mean ± SD [1, 11]: 0.375 ± 0.189 h
- Cmin, tramadol, Mean ± SD ([1]; Tramadol dosed as 50 mg Oral (Ultram tablet) every 6 hours): 213 ± 93 ng/mL
- Cmax, tramadol, Mean ± SD [1, 12]: 1250 ± 236 ng/mL
- Cmin, tramadol, Mean ± SD [1, 12]: 539 ± 172 ng/mL
- Tmax, tramadol, Mean ± SD [1, 12]: 0.406 ± 0.442 h
- Cmax, tramadol, Mean ± SD [1, 13]: 703 ± 210 ng/mL
- Cmin, tramadol, Mean ± SD [1, 13]: 405 ± 151 ng/mL
- AUC ([1]; human, plasma, iv, 50 mg): 1970 ± 453 ng·h/mL
- AUC(0-inf) ([1]; human, plasma, iv, 50 mg): 4040 ± 1060 ng·h/mL
- AUC(0-t) ([1]; human, plasma, iv, 50 mg): 4010 ± 1050 ng·h/mL
- AUC ([1]; human, plasma, iv, 100 mg): 4730 ± 1240 ng·h/mL
- AUC(0-inf) ([1]; human, plasma, iv, 100 mg): 11400 ± 4540 ng·h/mL
- AUC(0-t) ([1]; human, plasma, iv, 100 mg): 11200 ± 4270 ng·h/mL
- AUC(0-inf) ([1]; human, plasma, po, 50 mg): 4450 ± 2110 ng·h/mL
- AUC(0-t) ([1]; human, plasma, po, 50 mg): 4360 ± 2030 ng·h/mL
- Cmax ([1]; human, plasma, po, 50 mg): ~368 ng/mL
- AUC(0-t) ([1]; human, plasma, po, 100 mg): 8660 ± 4260 ng·h/mL
- absolute bioavailability of the oral dose ([2]; 100 mg PO vs IV, based on AUC values, hydrochloride): 68±13% and 68%
- first pass metabolism ([2]; 100 mg PO, estimated): ~20%
- estimated absorption of the oral dose ([2]; 100 mg PO): 86-88%
- CL/F (total clearance) ([2]; 100 mg i.v., hydrochloride): 467 ± 124 mL/min
- CL/F (total clearance) ([2]; 100 mg i.v., listed as tramadol, hydrochloride): 710 ± 174 mL/min
- time to peak serum concentration (tmax) ([2]; 100 mg oral dosing): approximately 2 hours
- CL/F (total clearance) ([2]; 100 mg p.o., hydrochloride): 710 ± 174 mL/min
- CL/F (total clearance) ([2]; 100 mg p.o., listed as tramadol, hydrochloride): 467 ± 124 mL/min
- AUC [3]: 2177 ± 722 ng·h/mL
- Cmax [3]: 274 ± 75 ng/mL
- Tmax [3]: 1.6 ± 0.5 h
- t1/2 [3]: 5.9 ± 0.7 h
- patients reporting adverse events ([4]; both groups (infusion and bolus)): 25%
- effects on blood pressure or heart rate ([4]; infusion and bolus groups): no significant effects
- doses with behavioral/clinical signs and convulsions (rats and dogs): > 25 mg/kg/day
- genotoxic potential [5]: no evidence of genotoxic potential
- carcinogenic potential (mice and rats): no evidence of carcinogenic potential
- absolute bioavailability ([6]; oral, continuous dosing (Liao et al., 1992)): 90-100%
- increase of elimination half-life ([6]; subjects with renal or hepatic impairment): approximately 2 fold
- serious adverse effects [7]: not associated with any serious adverse effects
- seizure ([8]; 200 mg IV administered over 5 minutes): No seizures were observed
- seizure ([8]; 300 mg IV delivered over 2.5 minutes): seizure was observed
- seizure ([8]; 700 mg IV administered over 1 minute): seizure was observed
- ratings of “liking” ([8]; tramadol 100 and 200 mg IV, morphine 10 and 20 mg IV, over 5 minutes, 10 experienced opioid abusers): neither dose of tramadol increased ratings
- ratings of “feel drug effect” compared to placebo ([8]; tramadol 100 and 200 mg IV, morphine 10 and 20 mg IV, over 5 minutes): significantly increased
- ratings on the ARCI-MBG scale ([8]; tramadol 100 and 200 mg IV, morphine 20 mg IV): neither dose of tramadol increased ratings
- fertility or teratogenic effects [9]: no safety concerns
- predicted exposure over 12 h at steady state ([10]; 50 mg IV q4h, 3 x AUCtau n): 6684 ng·h/mL
- RAC(trough) ([10]; 50 mg IV regimen (h 0, 2, 4, then q4h to h 44), mean): 2.1937
- Css ([10]; 50 mg IV regimen (h 0, 2, 4, then q4h to h 44), plasma, mean): 557 ng/mL
- predicted exposure over 12 h at steady state ([10]; 75 mg IV q6h, 2 x AUCtau n): 6072 ng·h/mL
- RAC(trough) ([10]; 75 mg IV regimen (h 0, 3, 6, then q6h to h 42), mean): 1.5026
- Css ([10]; 75 mg IV regimen (h 0, 3, 6, then q6h to h 42), plasma, mean): 506 ng/mL
- AUC24-48 ([10]; 75 mg IV regimen (h 0, 3, 6, then q6h to h 42), plasma, mean, hydrochloride): 9402 ng·h/mL
- predicted exposure over 12 h at steady state ([10]; 100 mg PO q6h, 2 x AUCtau n): 6950 ng·h/mL
- RAC(trough) ([10]; 100 mg oral q6h to h 42, mean): 2.5580
- Css ([10]; 100 mg oral q6h to h 42, plasma, mean): 579 ng/mL
- theoretical accumulation factor ([10]; 4-h dosing interval): 2.42
- theoretical accumulation factor ([10]; 6-h dosing interval): 1.82
- AUC(0-t) ([10]; human, plasma, iv, 50 mg, AUC0-24, 50 mg IV regimen (h 0, 2, 4, then q4h to h 44), plasma, mean): 9520 ng·h/mL
- AUC(0-t) ([10]; human, plasma, iv, 50 mg, AUC0-48, 50 mg IV regimen (h 0, 2, 4, then q4h to h 44), plasma, mean): 20500 ng·h/mL
- AUC ([10]; human, plasma, iv, 50 mg, AUC24-48, 50 mg IV regimen (h 0, 2, 4, then q4h to h 44), plasma, mean): 11000 ng·h/mL
- AUC ([10]; human, plasma, iv, 50 mg, AUCtau 1, 50 mg IV regimen (h 0, 2, 4, then q4h to h 44), first dosing interval, mean): 624 ng·h/mL
- AUC ([10]; human, plasma, iv, 50 mg, AUCtau n, 50 mg IV regimen (h 0, 2, 4, then q4h to h 44), last dosing interval, mean): 2230 ng·h/mL
- concentration at 2 h ([10]; human, plasma, iv, 50 mg, C2, 50 mg IV regimen (h 0, 2, 4, then q4h to h 44), plasma, mean): 203 ng/mL
- concentration at 48 h ([10]; human, plasma, iv, 50 mg, C48 (T48), 50 mg IV regimen (h 0, 2, 4, then q4h to h 44), plasma, mean): 448 ng/mL
- concentration at 1 h ([10]; human, plasma, iv, 50 mg, C1 h, 50 mg IV regimen (h 0, 2, 4, then q4h to h 44), plasma, mean): 243 ng/mL
